Patent publication US20030185914A1, “Process for isolating artemisinin from artemisia annua” (priority 2002, published 2003)

Test: Partitioning of pure artemisinin between hexane and aqueous ethanol (1:1 v/v), layers quantified by TLC
Format: physicochemical
Description: To select an efficient solvent for extraction of artemisinin different solvents systems were tested. For this 10 g of dry powdered leaves of Artemisia annua were extracted with methanol, 20% aqueous methanol, ethanol, 20% aqueous ethanol or hexane as a solvent individually in separate tubes. 10 ml of the solvent was taken out of the tube at 2, 4 and 6 h of incubation. The fraction was evaporated to dryness on a water bath, extract was solubilized in 2.0 ml solvent and spots (5 μl) were loaded on a TLC plate along with pure artemisinin dissolved in the respective solvent @ 1 mg/ml taken as controls. The TLC was carried out in a glass TLC tank saturated with the mobile phase hexane:diethyl ether (1:1), plates were developed to a height of 15 cm. Later plates were dried and spots were visualized by immersing the plates in a developing reagent (glacial acetic acid:sulfuric acid:anisaldehyde, 50:1:0.5), followed by heating the plate at 110° C. for 15 minutes or until pink spots of artemisinin appeared. For quantification, TLC spots corresponding to artemisinin were scanned at 540 and 610 nm dual wavelength mode of TLC scanner. It is clear from the table that pure ethanol and methanol rapidly extract the artemisinin as compared to hexane, however after a certain period of time concentration of artemisinin starts diminishing in methanol and ethanol extracts in contrast to hexane extract possibly because of decomposition or transformation of artemisinin into another unknown compound. Mixing of water in methanol caused a severe decay of artemisinin extraction. Ethanol was more efficient for extracting more artemisinin in less time period as compared to methanol and hexane both. On the basis of lower cost and rapid extraction efficiency ethanol will be a suitable solvent.
Pure artemisinin (0.2 g) was dissolved in different test tubes containing 1:1 (v/v) mixture of two non-miscible solvents, hexane and aqueous ethanol (i.e. ethanol mixed in water), where concentration of ethanol varied from 20 to 80%. After completely solubilizing the artemisinin in the mixture, two layers of hexane and ethanol were separated with the help of a separating funnel. The individual layer from different test tube was tested for the presence of artemisinin content by TLC as in example 1. The results showing the % fraction of artemisinin partitioned between the hexane and aqueous ethanolic layers separated from each tube are given in the Table -2.

[1] = Hexane:20% aqueous-ethanol (1:1 v/v)
[2] = Hexane:40% aqueous-ethanol (1:1 v/v)
[3] = Hexane:60% aqueous-ethanol (1:1 v/v)
[4] = Hexane:80% aqueous-ethanol (1:1 v/v)

Compound: C[C@@H]1CC[C@H]2[C@@H](C)C(=O)O[C@@H]3O[C@@]4(C)CC[C@@H]1[C@]32OO4 [artemisinin]
- % artemisinin in ethanol layer [1]: 100%
- % artemisinin in hexane layer [1]: 0%
- % artemisinin in ethanol layer [2]: 90%
- % artemisinin in hexane layer [2]: 10%
- % artemisinin in ethanol layer [3]: 30%
- % artemisinin in hexane layer [3]: 70%
- % artemisinin in ethanol layer [4]: 0%
- % artemisinin in hexane layer [4]: 100%
